These results are taken from article PMC9692542, “First Report of the Molecular Mechanism of Resistance to Tribenuron-Methyl in Silene conoidea L” (Plants, 2022).

In the experiment the test system is T1, ALS (acetolactate synthase).
T1 construct: native enzyme in leaf extract, not purified
Description: in vitro ALS activity of leaf extract, colorimetric acetoin ([…] nm). In kind it is biochemical, Silene conoidea. The conditions noted are these: leaf extract of susceptible population; read-out: I50 (μM) ^c.

As to `COC(=O)c1ccccc1S(=O)(=O)NC(=O)N(C)c1nc(C)nc(OC)n1` [tribenuron-methyl, methyl 2-[[[[N-(4-methoxy-6-methyl-1,3,5triazin-2-yl)methyl-amino]carbonyl]amino]sulfonyl]benzoate], the IC50 was found to be 11.6 ± 1 µM.
